Reference: patent publication US7422733B2, “Linkable sialyl Lewis X analogs” (Bracco International B.V., priority 2000, dated 2008)

Legend:
[1] = target: T1, E-selectin (Homo sapiens, UniProt P16581); conditions: in vitro, published value; cited from earlier work
T1 sequence (P16581 22-610): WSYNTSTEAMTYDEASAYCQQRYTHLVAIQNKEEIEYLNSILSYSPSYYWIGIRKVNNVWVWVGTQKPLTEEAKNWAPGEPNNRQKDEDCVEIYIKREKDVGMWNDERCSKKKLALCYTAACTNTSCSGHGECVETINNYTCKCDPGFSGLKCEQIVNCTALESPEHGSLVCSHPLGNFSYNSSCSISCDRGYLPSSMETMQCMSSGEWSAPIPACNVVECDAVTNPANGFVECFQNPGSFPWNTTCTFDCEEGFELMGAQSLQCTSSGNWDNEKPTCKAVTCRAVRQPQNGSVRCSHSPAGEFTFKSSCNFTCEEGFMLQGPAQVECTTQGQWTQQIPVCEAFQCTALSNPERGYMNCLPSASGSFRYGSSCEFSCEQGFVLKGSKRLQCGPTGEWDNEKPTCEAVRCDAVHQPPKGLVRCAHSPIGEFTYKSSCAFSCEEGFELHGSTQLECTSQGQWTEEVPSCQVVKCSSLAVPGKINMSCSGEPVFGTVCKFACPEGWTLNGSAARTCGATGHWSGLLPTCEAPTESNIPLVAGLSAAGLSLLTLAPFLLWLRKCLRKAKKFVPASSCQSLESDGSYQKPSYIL

[2] = target: T1, E-selectin; assay: binding of radiolabeled analog 3b to human aortic endothelial cells in vitro (E-selectin binding assay); parameters: endogenous in cells; host or cells: human aortic endothelial cells, stimulated with TNF-alpha or unstimulated
Experimental: We evaluated the ability of the radiolabeled acetamido-phenyl Sialyl Lewis^x analog 3b to bind to human aortic endothelial cells in vitro. […] S. A. DeFrees et al., J. Am. Chem. Soc., 117:66-79 (1995). […] The binding sites were specific to native Sialyl Lewis^x, since it was shown that cold unlabeled Sialyl Lewis^x (formula A) at a concentration of 10 mM displaced close to 50% of the bound counts at 0.2 mM concentration.

| Compound | Kd [1] [µM] | displacement of bound counts ([2]; cold unlabeled competitor at 10 mM, bound 3b counts at 0.2 mM) [%] | behaviour in E-selectin binding assay compared to native Sialyl Lewis^x [2] | concentrations at which the analog bound significantly ([2]; activated human aortic endothelial cells, 14C-labeled analog) | increase in the extent of binding in TNF-α stimulated cells over unstimulated control cells ([2]; cells stimulated with TNF-α vs unstimulated control cells) | binding relative to published Kd of native Sialyl Lewis^x ([2]; compared with published value of 1-2 mM) |
| --- | --- | --- | --- | --- | --- | --- |
| CC(=O)NC1C(O)OC(CO)C(OC2OC(CO)C(O)C(OC3(C(=O)O)CC(O)C(NC(C)=O)C([C@H](O)[C@H](O)CO)O3)C2O)C1OC1OC(C)C(O)C(O)C1O (stereo partly drawn) [Sialyl Lewis^x, sialyl Lewis X] | 1000 to 2000 | ~50 |  |  |  |  |
| CC(=O)N[C@H]1[C@H](Oc2ccc(N[14C](C)=O)cc2)O[C@H](CO)[C@@H](O[C@@H]2O[C@H](CO)[C@H](O)[C@H](O[C@]3(C(=O)O)C[C@H](O)[C@@H](NC(C)=O)[C@H]([C@H](O)[C@H](O)CO)O3)[C@H]2O)[C@@H]1O[C@@H]1O[C@@H](C)[C@@H](O)[C@@H](O)[C@@H]1O [compound 3b] |  |  | superior to native Sialyl Lewis^x | 0.1-0.2 mM | two-fold increase | ten fold greater |
